In patent publication US12415815B2, “Pyrido[2,3-e]oxazine derivatives as agricultural chemicals” (GLOBACHEM NV, priority 2020, dated 2025) one finds EC50 data, which are given here for 10 compounds.

What is called EC50 is the concentration giving half of the maximal effect.

Converted amounts (≈) assume the structure as drawn.

Format in all cases: cell-based
For one assay, the system named is Botrytis cinerea. As to the kind of experiment: Fungicidal activity screen in amended agar, 96 well plates, Botrytis cinerea. To be noted: Medium N agar, 5,000 spores/ml, 20, 2, 0.2 and 0.02 ppm, room temperature (18° C.), assessed after 3 to 4 days, read-out: Botrytis (fungal growth vs DMSO controls, EC50 ranking). The protocol: (§1) Compounds were screened in 96 well plates with 10 compounds per plate. Each compound was screened using agar amended to 20, 2, 0.2 and 0.02 ppm of the test material. Proline at 50 and 10 ppm and 0.2% DMSO were used respectively as positive and negative controls. Each test concentration and standard were tested twice on a plate.
(§2) Compounds were screened against the following three fungal pathogens—Botrytis cinerea, Alternaria alternata and Zymoseptoria tritici. The agar used in the test varied depending on the pathogen with Medium N used for B. cinerea and A. alternata and 1% potato dextrose agar for Z. tritici. For each pathogen sufficient spores were added to the appropriate agar to give 1,000 spores/mL agar of A. alternata, 5,000 spores/ml agar of B. cinerea and 10,000 spores/mL agar of Z. tritici.
(§3) A ×10 stock solution in 2% DMSO was produced for each dose i.e. 200, 20, 2 and 0.2 ppm, and 10 μl of this added to the appropriate wells on the plate. An equivalent amount of 2% DMSO and Proline stock at 500 and 100 ppm were added for the controls. To each well, 90 μl of the appropriate agar spore suspension was added to give the final well concentrations outlined in the first paragraph.
(§4) Plates were incubated at room temperature (18° C.) and assessed after: • a) 3 to 4 days A. alternata and B. cinerea • b) 7 days for Z. tritici
(§5) The amount of fungal growth in each well was compared to the DMSO controls and scored according to the following key: • A—EC50<2 ppm • B—2≤EC50<20 • C—EC50≥20 • D—No activity detected at the highest dose tested • NT—Not tested

In a further assay the test system is Alternaria alternata. As to the kind of experiment: Fungicidal activity screen in amended agar, 96 well plates, Alternaria alternata. To be noted: Medium N agar, 1,000 spores/mL, 20, 2, 0.2 and 0.02 ppm, room temperature (18° C.), assessed after 3 to 4 days, read-out: Alternaria (fungal growth vs DMSO controls, EC50 ranking). The protocol:
as §1, §2, §3, §4, §5

In another assay the test system is Zymoseptoria tritici. In words: Fungicidal activity screen in amended agar, 96 well plates, Zymoseptoria tritici. The note with it: Zymoseptoria tritici, 168 h; 1% potato dextrose agar, 10,000 spores/mL, 20, 2, 0.2 and 0.02 ppm, room temperature (18° C.), assessed after 7 days; read-out: Zymoseptoria (fungal growth vs DMSO controls, EC50 ranking). As to the method:
as §1, §2, §3, §4, §5

`COc1ccnc2c(=O)n(-c3nc4ccc(Oc5ccc(F)cc5Cl)cc4s3)c(=S)oc12` [Example 6, 3-(6-(2-Chloro-4-fluorophenoxy)benzo[d]thiazol-2-yl)-8-methoxy-2-thioxo-2,3-dihydro-4H-pyrido[2,3-e][1,3]oxazin-4-one]: the half-maximal effective concentration (EC50) was 2 to 20 µg/mL (≈ 4.1 to 41 µM) in the assay with Botrytis cinerea, 2 to 20 µg/mL (≈ 4.1 to 41 µM) with Alternaria alternata and less than 2 µg/mL in the assay with Zymoseptoria tritici.
Consider `COc1ccnc2c(=O)n(-c3nc4ccc(Oc5cncc(Cl)c5)cc4s3)c(=S)oc12` [Example 7, 3-(6-((5-Chloropyridin-3-yl)oxy)benzo[d]thiazol-2-yl)-8-methoxy-2-thioxo-2,3-dihydro-4H-pyrido[2,3-e][1,3]oxazin-4-one], for which the concentration giving a half-maximal response (EC50) is 2 to 20 µg/mL (≈ 4.25 to 42.5 µM) with Botrytis cinerea, 2 to 20 µg/mL (≈ 4.25 to 42.5 µM) with Alternaria alternata and less than 2 µg/mL in the assay with Zymoseptoria tritici.
Consider `COc1ccnc2c(=O)n(-c3nc4ccc(Oc5cncc(C(F)(F)F)c5)cc4s3)c(=S)oc12` [Example 8, 8-Methoxy-2-thioxo-3-(6-((5-(trifluoromethyl)pyridin-3-yl)oxy)benzo[d]thiazol-2-yl)-2,3-dihydro-4H-pyrido[2,3-e][1,3]oxazin-4-one], for which the EC50 in the assay on Botrytis cinerea is 2 to 20 µg/mL (≈ 3.96 to 39.6 µM); with Alternaria alternata it was 2 to 20 µg/mL (≈ 3.96 to 39.6 µM); in the assay on Zymoseptoria tritici, less than 2 µg/mL.
`COc1ccnc2c(=O)n(-c3nc4ccc(Oc5cccc(Cl)c5)cc4s3)c(=S)oc12` [Example 9, 3-(6-(3-Chlorophenoxy)benzo[d]thiazol-2-yl)-8-methoxy-2-thioxo-2,3-dihydro-4H-pyrido[2,3-e][1,3]oxazin-4-one]: the 50% effective concentration (EC50) with Botrytis cinerea was 2 to 20 µg/mL (≈ 4.26 to 42.6 µM); in the assay with Alternaria alternata it was 2 to 20 µg/mL (≈ 4.26 to 42.6 µM); in the assay with Zymoseptoria tritici, less than 2 µg/mL.
For `COc1ccnc2c(=O)n(-c3nc4ccc(Oc5ccc(F)cc5)cc4s3)c(=S)oc12` [Example 10, 3-(6-(4-Fluorophenoxy)benzo[d]thiazol-2-yl)-8-methoxy-2-thioxo-2,3-dihydro-4H-pyrido[2,3-e][1,3]oxazin-4-one], the concentration giving a half-maximal response (EC50) with Botrytis cinerea was 2 to 20 µg/mL (≈ 4.41 to 44.1 µM); in the assay with Alternaria alternata it was less than 2 µg/mL; in the assay with Zymoseptoria tritici, less than 2 µg/mL.
For the compound `COc1ccnc2c(=O)n(-c3nc4ccc(Oc5cccc(F)c5)cc4s3)c(=S)oc12` [Example 11, 3-(6-(3-Fluorophenoxy)benzo[d]thiazol-2-yl)-8-methoxy-2-thioxo-2,3-dihydro-4H-pyrido[2,3-e][1,3]oxazin-4-one], the EC50 in the assay on Botrytis cinerea, with Alternaria alternata and with Zymoseptoria tritici was 2 to 20 µg/mL (≈ 4.41 to 44.1 µM) throughout.
On to `COc1ccnc2c(=O)n(-c3nc4ccc(Oc5ccccc5)cc4s3)c(=S)oc12` [Example 17, 8-Methoxy-3-(6-phenoxybenzo[d]thiazol-2-yl)-2-thioxo-2,3-dihydro-4H-pyrido[2,3-e][1,3]oxazin-4-one], for which the EC50 in the assay on Botrytis cinerea was 2 to 20 µg/mL (≈ 4.59 to 45.9 µM); in the assay on Alternaria alternata, 2 to 20 µg/mL (≈ 4.59 to 45.9 µM); in the assay with Zymoseptoria tritici it was less than 2 µg/mL.
Turning to `COc1ccnc2c(=O)n(-c3nc4ccc(Oc5ccccc5C(F)(F)F)cc4s3)c(=S)oc12` [Example 20, 8-Methoxy-2-thioxo-3-(6-(2-(trifluoromethyl)phenoxy)benzo[d]thiazol-2-yl)-2,3-dihydro-4H-pyrido[2,3-e][1,3]oxazin-4-one], the EC50 was 2 to 20 µg/mL (≈ 3.97 to 39.7 µM) with Botrytis cinerea, 2 to 20 µg/mL (≈ 3.97 to 39.7 µM) in the assay on Alternaria alternata and less than 2 µg/mL with Zymoseptoria tritici.
Take `COc1ccnc2c(=O)n(-c3nc4ccc(Oc5cc(F)cc(F)c5)cc4s3)c(=S)oc12` [Example 21, 3-(6-(3,5-Difluorophenoxy)benzo[d]thiazol-2-yl)-8-methoxy-2-thioxo-2,3-dihydro-4H-pyrido[2,3-e][1,3]oxazin-4-one]: the half-maximal effective concentration (EC50) in the assay on Botrytis cinerea is 2 to 20 µg/mL (≈ 4.24 to 42.4 µM); in the assay with Alternaria alternata, 2 to 20 µg/mL (≈ 4.24 to 42.4 µM); with Zymoseptoria tritici, less than 2 µg/mL.
For `COc1ccnc2c(=O)n(-c3nc4ccc(OC5CCCCC5)cc4s3)c(=S)oc12` [Example 22, 3-(6-(Cyclohexyloxy)benzo[d]thiazol-2-yl)-8-methoxy-2-thioxo-2,3-dihydro-4H-pyrido[2,3-e][1,3]oxazin-4-one], the EC50 with Botrytis cinerea is 2 to 20 µg/mL (≈ 4.53 to 45.3 µM); with Alternaria alternata, not below 20 µg/mL; with Zymoseptoria tritici, 2 to 20 µg/mL (≈ 4.53 to 45.3 µM).
